According to patent US20260209200A1, “SALTS OF A DIHYDROOROTATE DEHYDROGENASE (DHOD) INHIBITOR” (priority 2022, published 2026):

Key:
[1] = in vivo; conditions: rat
Method: (§1) Suspensions were stirred continuously prior to dose.
A total of 27 male SD rats were used (n=3). 27 male SD rats assigned to the study were divided into 9 groups and a single type of formulated PP-001 salt was orally administered to each group of rats at dose level of 4 mg/kg (2 mL/kg dose volume). The diet was provided ad libitum throughout the in-life portion of the study, except for the fasting prior to dosing through 4 hours post dose. Drinking water was available daily ad libitum to all animals.
(§2) Plasma samples were collected via the jugular vein cannulation into EDTA-K3 tubes at 0.25, 0.5, 1, 2, 4, 8, and 24 hours post-dose administration. For analytical batch of single oral administration, plasma concentrations of salts of PP-001 were determined using LC-MS/MS with a lower limit of quantitation of 1 ng/mL.
(§3) The pharmacokinetic parameters of PP-001 salts were determined by non-compartmental analysis using WinNonlin Version 8.0 (Pharsight, Mountain View, CA). The area under the curve from the time of dosing to the last measurable concentration, AUC0-t, was calculated by the linear trapezoidal rule. The area under the concentration-time curve extrapolated to infinity, AUCinf, was calculated using a regression of the natural logarithm of the concentration values versus sampling time of the terminal slope (Lambda Z, k). This value is also used to calculate half-life (T1/2) as follows:
(§4) The bioavailability was calculated as follows:
(§5) [formula] • wherein PO is an oral administration and IV is an intravenous injection.

[2] = Kinetic solubility of PP-001 salts in FaSSIF (HPLC); type: physicochemical; conditions: for Appearance after stirring for 24 hours / Final pH / Solubility at different time points, 0.5 h / Solubility at different time points, 1 h / Solubility at different time points, 2 h / Solubility at different time points, 24 h / Solubility at different time points, Initial: 4 mL FaSSIF, 25° C., target 2 mg/mL
Method: Approximately 8 mg (calculated as freebase) of each salt was weighed out into each glass vial and then 4 ml of FaSSIF was added (target concentration was 2 mg/mL). The sample was kept stirring on a magnetic stirrer at a speed of I 00 RPM under 25° C. Then at the time points of initial, 0.5 hr, 1 hr, 2 hrs and 24 hrs, 0.5 mL of sample solution was transferred into 1.5 mL centrifugation tube and centrifuged at 12,000 RPM for 10 min. The supernatant was diluted by 50% ACN suitable and analyzed by HPLC.
An HPLC method of testing solubility was performed as follows in Table A: […]

[3] = in vivo; conditions: dog; for AUC0-∞ / AUCExtr / AUCinf/D / AUClast / Cmax / F, bioavailability (BA) in dogs / MRT0-∞ / T1/2 / Tmax: 4 mg/kg
Method: as §1
A total of 6 male beagle dogs were used (n=3). 6 male dogs assigned to the study were divided into 2 periods with 6 dogs per period and two dosing cycles separated by a 7-day washout period. The diet was provided ad libitum throughout the in-life portion of the study, except for the fasting prior to dosing through 4 hours post dose. Drinking water was available daily ad libitum to all animals. Formulated PP-001 salts were administered to male beagle dogs by oral administration at 4 mg/kg with dosed volume at 2 mL/kg.
as §2, with “of 10” for “of 1”
as §3, §4, §5

[4] = Thermodynamic (equilibrium) solubility of PP-001 salts in FaSSIF; type: physicochemical; conditions: for Final pH / Appearance after stirring for 24 hours / Thermodynamic solubility: 3 mL FaSSIF, 37° C.; for Final pH: pH tested after 24 hours; for Appearance after stirring for 24 hours: saturated; for Thermodynamic solubility: saturated (target 10 mg/mL), time point 2 hrs, pH 6.4 to 6.5
Method: As the solid was completely dissolved, add more sample to keep it saturated. […] Then at the time point 2 hrs, 0.5 mL of sample solution was transferred into 1.5 mL centrifugation tube and centrifuged at 12,000 RPM for 10 min. The supernatant was diluted by 50% ACN suitable and analyzed by HPLC. The pH was tested after 24 hours.

[5] = FaSSIF, comparison from Table 6

| Compound | Increase in oral BA vs free acid in rats ([1]; in vivo, po) | AUC0-∞ ([1]; in vivo, po, 4 mg/kg) [ng·h/mL] | AUCExtr ([1]; in vivo, po, 4 mg/kg) [%] | AUCinf/D ([1]; in vivo, po, 4 mg/kg) [kg·ng·h/mL/mg] | AUClast ([1]; in vivo, po, 4 mg/kg) [ng·h/mL] | Cmax ([1]; in vivo, po, 4 mg/kg) [ng/mL] | F, bioavailability (BA) in rats ([1]; in vivo, po, 4 mg/kg) [%] | MRT0-∞ ([1]; in vivo, po, 4 mg/kg) [h] | Tmax ([1]; in vivo, po, 4 mg/kg) [h] | T1/2 ([1]; in vivo, po, 4 mg/kg, pH 6.8) [h] | Appearance after stirring for 24 hours [2] | Final pH [2] | Solubility at different time points, 0.5 h [2] [mg/mL] | Solubility at different time points, 1 h [2] [mg/mL] | Solubility at different time points, 2 h [2] [mg/mL] | Solubility at different time points, 24 h [2] [mg/mL] | Solubility at different time points, Initial [2] [mg/mL] | Increase in oral BA vs free acid in dogs [3] | Appearance after stirring for 24 hours [4] | Thermodynamic solubility [4] [mg/mL] | other results |
| --- | --- | --- | --- | --- | --- | --- | --- | --- | --- | --- | --- | --- | --- | --- | --- | --- | --- | --- | --- | --- | --- |
| Tromethamine | 1.6 | 21874 | 0.930 | 5469 | 21665 | 2787 | 12.5 | 5.38 | 4.00 | 3.39 | clear solution | 6.51 | 1.99 | 1.95 | 1.96 | 2.02 | 1.72 | 2.4 | Suspension | 3.70 | AUC0-∞ ([3]; po): 106.528 µg·h/mL; AUCExtr ([3]; po): 2.03%; AUCinf/D ([3]; po): 26632 kg·ng·h/mL/mg; AUClast ([3]; po): 104.381 µg·h/mL; Cmax ([3]; po): 20467 ng/mL; F, bioavailability (BA) in dogs ([3]; po): 54.4%; MRT0-∞ ([3]; po): 5.38 h; T1/2 ([3]; po): 4.13 h; Tmax ([3]; po): 2.67 h; Final pH [4]: 6.44; Thermodynamic solubility ([4]; listed as Tromethamine cation): 3.7 mg/mL |
| [K+] [Potassium] | 0.7 | 10112 | 0.525 | 2528 | 10049 | 1144 | 5.8 | 5.31 | 4.00 | 2.96 | clear solution | 6.50 | 1.70 | 2.18 | 2.19 | 2.26 | 0.49 | 4.0 | Suspension | 2.34 | Increased bioavailability in dogs vs PP-001 free acid ([3]; po): > 400 % increase; AUC0-∞ ([3]; po): 180.263 µg·h/mL; AUCExtr ([3]; po): 1.59%; AUCinf/D ([3]; po): 45066 kg·ng·h/mL/mg; AUClast ([3]; po): 177.228 µg·h/mL; Cmax ([3]; po): 33967 ng/mL; MRT0-∞ ([3]; po): 4.34 h; T1/2 ([3]; po): 4.15 h; Tmax ([3]; po): 1.17 h; Increased solubility vs PP-001 free acid [4, 5]: > 100 % increase |
| Benzathine | 0.7 | 9593 | 0.298 | 2398 | 9559 | 1495 | 5.5 | 4.81 | 3.33 | 2.70 |  |  |  |  |  |  |  |  | Suspension | 0.03 | Final pH [4]: 6.43 |
| [Mg] [Magnesium] | 1.7 | 23029 | 0.510 | 5757 | 22909 | 3163 | 13.2 | 4.87 | 3.33 | 3.01 | suspension |  | 1.52 | 1.51 | 1.44 |  | 0.33 |  |  |  | Solubility at different time points, 24 h ([2]; listed as Mg): 1.01 mg/mL; Solubility at different time points, 24 h ([2]; listed as Mg cation): 1.01 mg/mL |
| Zinc | 1.3 | 17122 | 0.471 | 4281 | 17033 | 2490 | 9.82 | 5.33 | 4.00 | 2.89 |  |  |  |  |  |  |  |  |  |  |  |
| CNC[C@H](O)[C@@H](O)[C@H](O)[C@H](O)CO [Meglumine] | 1.3 | 17083 | 0.488 | 4271 | 16995 | 2217 |  | 4.83 | 3.00 | 3.02 |  |  | 2.01 | 1.98 | 2.00 | 1.96 | 1.32 |  |  | 5.69 |  |
| [Ca] [Calcium] | 2.0 | 27157 | 1.03 | 6789 | 26827 | 3280 | 15.6 | 5.55 | 4.00 | 3.40 | suspension | 6.51 | 0.75 | 0.74 | 0.71 |  | 0.34 | 3.0 |  |  | Solubility at different time points, 24 h ([2]; listed as Ca): 0.70 mg/mL; Solubility at different time points, 24 h ([2]; listed as Ca cation): 0.7 mg/mL; Solubility compared to PP-001 free acid [2, 5]: reduced solubility compared to PP-001 free acid; Increase in bioavailability in dogs ([3]; po): > 3 fold; AUC0-∞ ([3]; po): 133.409 µg·h/mL; AUCExtr ([3]; po): 1.16%; AUCinf/D ([3]; po): 33352 kg·ng·h/mL/mg; AUClast ([3]; po): 131.819 µg·h/mL; Cmax ([3]; po): 22467 ng/mL; F, bioavailability (BA) in dogs ([3]; po): 68.1%; MRT0-∞ ([3]; po): 4.38 h; T1/2 ([3]; po): 3.76 h; Tmax ([3]; po): 1.67 h |
| NCCCC[C@H](N)C(=O)O [Lysine] |  |  |  |  |  |  |  |  |  |  |  |  | 2.04 | 2.06 | 2.02 | 2.09 | 1.37 |  | Suspension | 4.65 | AUC0-∞ ([1]; PO 4 mg/kg, mean n=3): 18430 ng·h/mL; AUCExtr ([1]; PO 4 mg/kg, mean n=3): 0.388%; AUCinf/D ([1]; PO 4 mg/kg, mean n=3): 4607 kg·ng·h/mL/mg; AUClast ([1]; PO 4 mg/kg, mean n=3): 18361 ng·h/mL; Cmax ([1]; PO 4 mg/kg, mean n=3): 2663 ng/mL; F, bioavailability (BA) in rats ([1]; PO 4 mg/kg, mean n=3): 10.6%; MRT0-∞ ([1]; PO 4 mg/kg, mean n=3): 4.97 h; Tmax ([1]; PO 4 mg/kg, mean n=3): 4.00 h; T1/2 ([1]; PO 4 mg/kg, suspension in pH 6.8 phosphate buffer, mean n=3): 2.85 h; Increase in oral BA vs free acid in rats ([1]; oral, ratio to PP-001 free acid): 1.4 |
